The source of these data is patent US20070072912A1, “Alicyclic-amine-substituted 4-carboxamido-benzimidazoles as parp-inhibitors and antioxidants” (Cedars-Sinai Medical Center, priority 2003, published 2007).

Each structure is given as a SMILES string. Structures can show the parent of a compound that is named as a salt.

T1 sequence (P27008 whole entry): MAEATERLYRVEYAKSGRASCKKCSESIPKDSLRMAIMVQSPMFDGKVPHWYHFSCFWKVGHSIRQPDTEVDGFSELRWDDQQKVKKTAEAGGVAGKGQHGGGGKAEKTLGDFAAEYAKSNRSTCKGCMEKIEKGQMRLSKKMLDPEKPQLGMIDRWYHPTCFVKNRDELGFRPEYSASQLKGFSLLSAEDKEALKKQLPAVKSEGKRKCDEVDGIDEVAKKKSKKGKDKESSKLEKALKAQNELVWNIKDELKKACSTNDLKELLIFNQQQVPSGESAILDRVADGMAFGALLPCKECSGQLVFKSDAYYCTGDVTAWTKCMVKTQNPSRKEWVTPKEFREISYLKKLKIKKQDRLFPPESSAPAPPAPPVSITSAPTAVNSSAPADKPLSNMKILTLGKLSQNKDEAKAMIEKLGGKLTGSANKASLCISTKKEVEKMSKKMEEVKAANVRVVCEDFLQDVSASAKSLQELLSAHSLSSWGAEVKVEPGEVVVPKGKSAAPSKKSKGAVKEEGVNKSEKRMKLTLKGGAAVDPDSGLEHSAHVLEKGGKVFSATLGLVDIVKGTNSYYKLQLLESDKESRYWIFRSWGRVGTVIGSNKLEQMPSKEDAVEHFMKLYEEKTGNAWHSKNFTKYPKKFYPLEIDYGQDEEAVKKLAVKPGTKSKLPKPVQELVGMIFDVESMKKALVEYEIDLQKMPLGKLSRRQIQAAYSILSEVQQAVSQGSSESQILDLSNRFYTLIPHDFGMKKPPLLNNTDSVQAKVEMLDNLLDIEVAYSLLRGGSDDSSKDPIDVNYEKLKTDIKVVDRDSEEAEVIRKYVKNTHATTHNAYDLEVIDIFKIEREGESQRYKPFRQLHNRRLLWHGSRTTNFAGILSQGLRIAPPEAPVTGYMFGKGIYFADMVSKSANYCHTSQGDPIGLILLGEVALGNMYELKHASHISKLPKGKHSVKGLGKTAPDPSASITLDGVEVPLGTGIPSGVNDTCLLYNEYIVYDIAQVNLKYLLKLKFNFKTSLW

Test system in one series: not given
Assay: not given
Details: not given
As a reminder, the melting point is the temperature, or range, at which the solid turns liquid. `CC1(C)C=C(CSc2nc3c(C(N)=O)cccc3[nH]2)CC(C)(C)N1` [Compound 29, 2-(2,2,6,6-tetramethyl-1,2,3,6-tetrahydro-pyridin-4-yl-methylsulphanyl)-1H-benzimidazole 4-carboxylic acid amide] came in with a melting point of 245 to 246 °C. As to `CC1(C)C=C(CSc2nc3c(C(N)=O)cccc3[nH]2)C(C)(C)N1` (as salt: HCl) [Compound 27, 2-(2,2,5,5-tetramethyl-2,5-dihydro-1H-pyrrol-3-yl-methyl-sulphanyl)-1H-benzimidazole 4-carboxylic acid amide], the melting point fell in the range of 209 to 211 °C.

A further series has as its target T1, Poly-ADP-ribose polymerase (PARP enzyme) (Rattus norvegicus, UniProt P27008).
T1 construct: Poly-ADP-ribose polymerase was isolated from rat liver; from tissue; host or cells: rat liver
The experiment in a line: Inhibitory effect of benzimidazole derivatives on PARP enzyme in vitro ([3H]NAD+ incorporation). It counts as biochemical.
Details: not given
On the procedure: Assay to test inhibitory effects of benzimidazole derivatives on PARP enzyme in vitro.
The potential inhibitory effect of benzimidazole derivatives were tested in this assay system. The PARP activity was determined in 130 μl reaction mixture contained 100 mM Tris-HCl buffer, pH 8.0, 10 mM MgCl2, 10% glycerol, 1.5 mM DTT, 1 mM [Adenine-2,8-^3H] NAD^+ (4.500 cpm/nmol), 10 μg activated DNA and 10 μg histones. The incubation time was 15 minutes, and the reaction was stopped by addition of trichloro-acetic acid (8%). After addition of 0.5 mg albumine, precipitation was allowed to proceed for at least 20 minutes on ice, and the insoluble material was collected on a glass filter washed with 5% perchloric acid. The protein-bound radio-activity was determined by a LS-200 Beckman scintillation counter.
The IC50 is the midpoint of a concentration-inhibition curve. On to `CN1C(C)(C)C=C(c2nc3c(C(N)=O)cccc3[nH]2)C1(C)C` [Compound 13, 2-(1,2,2,5,5-pentamethyl-2,5-dihydro-1H-pyrrol-3-yl)-1H-benzimidazole 4-carboxylic acid amide], for which the IC50 turned out to be 0.042 µM. Still for that read-out and setting: next, `CC1(C)C(c2nc3c(C(N)=O)cccc3[nH]2)=C(c2cccc3c2oc2ccccc23)C(C)(C)N1[O]` [Compound 16]: 1.8 µM; `CC1(C)C(c2ccccc2)=C(c2nc3c(C(N)=O)cccc3[nH]2)C(C)(C)N1[O]` [Compound 7, 2-(1-oxyl-4-phenyl-2,2,5,5-tetramethyl-2,5-dihydro-1H-pyrrol-3-yl)-1H-benzimidazole 4-carboxylic acid amide radical]: 1.5 µM. Same read-out and setting: next, `CC1(C)C=C(c2nc3c(C(N)=O)cccc3[nH]2)C(C)(C)N1[O]` [Compound 1, 2-(1-oxyl-2,2,5,5-tetramethyl-2,5-dihydro-1H-pyrrol-3-yl)-1H-benzimidazole 4-carboxylic acid amide radical]: 0.721 µM; `COc1cc(-c2nc3c(C(N)=O)cccc3[nH]2)ccc1OCC1=CC(C)(C)NC1(C)C` [Compound 23, 2-[3-methoxy-4-(2,2,5,5-tetramethyl-2,5-dihydro-1H-pyrrol-3-yl-methoxy)-phenyl]-1H-benzimidazole 4-carboxylic acid amide]: 0.432 µM. The same measure, in the same setting: in the case of `CC1(C)C=C(c2nc3c(C(N)=O)cccc3[nH]2)CC(C)(C)N1` [Compound 19, 2-(2,2,6,6-tetramethyl-1,2,3,6-tetrahydro-pyridin-4-yl)-1H-benzimidazole 4-carboxylic acid amide] it was 0.014 µM; in that of `CC1(C)c2cc(-c3nc4c(C(N)=O)cccc4[nH]3)sc2C(C)(C)N1[O]` [Compound 24, 2-(5-oxyl-4,4,6,6-tetramethyl-4,6-dihydro-5H-thieno[2,3-c]pyrrol-2-yl)-1H-benzimidazole 4-carboxylic acid amide radical], 3.4 µM; in that of `CC1(C)C(c2cccc(C(F)(F)F)c2)=C(c2nc3c(C(N)=O)cccc3[nH]2)C(C)(C)N1[O]` [Compound 9, 2-[1-oxyl-2,2,5,5-tetramethyl-4-(3-trifluoromethyl-phenyl)-2,5-dihydro-1H-pyrrol-3-yl]-1H-benzimidazole 4-carboxylic acid amide radical], 0.149 µM. The compound `CC1(C)NC(C)(C)C(c2nc3c(C(N)=O)cccc3[nH]2)=C1c1cccc(C(F)(F)F)c1` [Compound 10, 2-[2,2,5,5-tetramethyl-4-(3-trifluoromethyl-phenyl)-2,5-dihydro-1H-pyrrol-3-yl]-1H-benzimidazole 4-carboxylic acid amide] returned a 50% inhibitory concentration (IC50) of 0.133 µM.

`CC1(C)NC(C)(C)c2sc(-c3nc4c(C(N)=O)cccc4[nH]3)cc21` [Compound 25, 2-(4,4,6,6-tetramethyl-4,6-dihydro-5H-thieno[2,3-c]pyrrol-2-yl)-1H-benzimidazole 4-carboxylic acid amide] yielded an IC50 of 0.354 µM. Still for that read-out and setting: in the case of `CC1(C)C(Br)=C(c2nc3c(C(N)=O)cccc3[nH]2)C(C)(C)N1[O]` [Compound 5, 2-(4-bromo-1-oxyl-2,2,5,5-tetramethyl-2,5-dihydro-1H-pyrrol-3-yl)-1H-benzimidazole 4-carboxylic acid amide radical] it was 0.201 µM; in that of `CC1(C)C=C(COc2ccc(-c3nc4c(C(N)=O)cccc4[nH]3)cc2)C(C)(C)N1[O]` [Compound 20, 2-[4-(1-oxyl-2,2,5,5-tetramethyl-2,5-dihydro-1H-pyrrol-3-yl-methoxy)-phenyl]-1H-benzimidazole 4-carboxylic acid amide radical], 0.564 µM; in that of `COc1cc(-c2nc3c(C(N)=O)cccc3[nH]2)ccc1OCC1=CC(C)(C)N([O])C1(C)C` [Compound 22, 2-[3-methoxy-4-(1-oxyl-2,2,5,5-tetramethyl-2,5-dihydro-1H-pyrrol-3-yl-methoxy)-phenyl]-1H-benzimidazole 4-carboxylic acid amide radical], 0.472 µM. The same measure, in the same setting: next, `CC1(C)C=C(c2ccc(-c3nc4c(C(N)=O)cccc4[nH]3)cc2)C(C)(C)N1[O]` [Compound 11, 2-[4-(1-oxyl-2,2,5,5-tetramethyl-2,5-dihydro-1H-pyrrol-3-yl)-phenyl]-1H-benzimidazole 4-carboxylic acid amide radical]: 0.078 µM.

The same series, now with this note: PARP isolated from rat liver, 1 mM [3H]NAD+, 15 min incubation; read-out: PARP IC50.
Take `CC(=O)N1C(C)(C)C=C(c2nc3c(C(N)=O)cccc3[nH]2)C1(C)C` [Compound 14, 2-(1-acetyl-2,2,5,5-tetramethyl-2,5-dihydro-1H-pyrrol-3-yl)-1H-benzimidazole 4-carboxylic acid amide]: the IC50 was determined as 0.049 µM.

On to `CC1(C)NC(C)(C)C(c2nc3c(C(N)=O)cccc3[nH]2)=C1c1ccccc1` [Compound 8, 2-(4-phenyl-2,2,5,5-tetramethyl-2,5-dihydro-1H-pyrrol-3-yl)-1H-benzimidazole 4-carboxylic acid amide], for which the IC50 worked out at 0.31 µM. The same measure, in the same setting: next, `CC1(C)C=C(c2ccc(-c3nc4c(C(N)=O)cccc4[nH]3)cc2)C(C)(C)N1` [Compound 12, 2-[4-(2,2,5,5-tetramethyl-2,5-dihydro-1H-pyrrol-3-yl)-phenyl]-1H-benzimidazole 4-carboxylic acid amide]: 0.098 µM.

Regarding `CC1(C)NC(C)(C)C(c2nc3c(C(N)=O)cccc3[nH]2)=C1Br` [Compound 6, 2-(4-bromo-2,2,5,5-tetramethyl-2,5-dihydro-1H-pyrrol-3-yl)-1H-benzimidazole 4-carboxylic acid amide], the IC50 came out at 0.137 µM. In the case of `COC(=O)C1C(c2nc3c(C(N)=O)cccc3[nH]2)C(C)(C)NC1(C)C` (centres unmarked) [Compound 4, 4-(4-carbamoyl-1H-benzimidazol-2-yl)-2,2,5,5-tetramethyl-pyrrolidine-3-carboxylic acid methyl ester], the IC50 is 0.216 µM.

`CC1(C)NC(C)(C)C(c2cccc3c2oc2ccccc23)=C1c1nc2c(C(N)=O)cccc2[nH]1` [Compound 17]: the IC50 was determined as 8.2 µM. `CC1(C)C=C(COc2ccc(-c3nc4c(C(N)=O)cccc4[nH]3)cc2)C(C)(C)N1` [Compound 21, 2-[4-(2,2,5,5-tetramethyl-2,5-dihydro-1H-pyrrol-3-yl-methoxy)-phenyl]-1H-benzimidazole 4-carboxylic acid amide]: the IC50 worked out at 0.572 µM. The same measure, in the same setting: next, `CC1(C)C=C(c2nc3c(C(N)=O)cccc3[nH]2)CC(C)(C)N1O` [Compound 18, (1-hydroxy-2,2,6,6-tetramethyl-1,2,3,6-tetrahydro-pyridin-4-yl)-1H-benzimidazole 4-carboxylic acid amide]: 0.026 µM; `CC1(C)C=C(c2nc3c(C(N)=O)cccc3[nH]2)C(C)(C)N1` [Compound 2, 2-(2,2,5,5-tetramethyl-2,5-dihydro-1H-pyrrol-3-yl)-1H-benzimidazole 4-carboxylic acid amide]: 0.345 µM. On the same count and under the same terms, next, `CON1C(C)(C)C=C(c2nc3c(C(N)=O)cccc3[nH]2)C1(C)C` [Compound 15, 2-(1-methoxy-2,2,5,5-tetramethyl-2,5-dihydro-1H-pyrrol-3-yl)-1H-benzimidazole 4-carboxylic acid amide]: 0.061 µM.
